In ChEMBL document CHEMBL1268898, “Metallocene catalyzed synthesis of fungistatic vicinal aminoalcohols under solvent free conditions” (2010):

Key:
[1] = test system: Botrytis cinerea; assay: Fungistatic activity against Botrytis cinerea assessed as inhibition of fungal growth at 100 mg/L relative to control; format: functional; details: read-out: GI
[2] = test system: Colletotrichum gloeosporioides; assay: Fungistatic activity against Colletotrichum gloeosporioides assessed as inhibition of fungal growth at 100 mg/L relative to control; format: functional; details: read-out: GI

With `CN(C)S(=O)(=O)N(SC(F)(Cl)Cl)c1ccccc1` [DICHLOFLUANID] as the molecule, how does the inhibition of growth at 100 µg/mL [1] read?
The inhibition of growth at 100 µg/mL was > 95%.

What does the source list for `Cc1ccc(NCC(C)(C)O)cc1`?
inhibition of growth at 100 µg/mL [1]: 62%; inhibition of growth at 100 µg/mL [2]: < 30%

What does the source list for `O=[N+]([O-])c1ccc(NC(CO)c2ccccc2)cc1` (stereo unspecified)?
inhibition of growth at 100 µg/mL [1]: 69%; inhibition of growth at 100 µg/mL [2]: 55%

Which inhibition of growth at 100 µg/mL [1] does the source give for `Cc1ccc(NC(CO)c2ccccc2)cc1` (stereo unspecified) here?
The inhibition of growth at 100 µg/mL was 63%.

What about the inhibition of growth at 100 µg/mL [2] of the same molecule?
The inhibition of growth at 100 µg/mL was 40%.

`Cc1ccc(NCC(O)COc2ccccc2)cc1` (stereo unspecified) was tested. Which inhibition of growth at 100 µg/mL [1] did it give?
The inhibition of growth at 100 µg/mL was 87%.

And the inhibition of growth at 100 µg/mL [2]?
Its inhibition of growth at 100 µg/mL is 72%.

`Cc1ccc(N(CC(O)COc2ccccc2)CC(O)COc2ccccc2)cc1` (stereo unspecified) was tested. Which inhibition of growth at 100 µg/mL [1] did it give?
The inhibition of growth at 100 µg/mL was 53%.

What about the inhibition of growth at 100 µg/mL [2] of the same molecule?
The inhibition of growth at 100 µg/mL was < 30%.
